Values belong to the molecule of their own block, whether it stands above or below them.
Experiments:
[1] = target: T1, KEAP1 (Kelch-like ECH-associated protein 1) (Homo sapiens, UniProt Q14145); test: ITC with recombinant full-length KEAP1; SPR showed PYR modestly increases DLG(W24C) peptide binding to the Kelch domain
T1 construct: human recombinant KEAP1 (Gln2-Cys624)

[2] = target: T2, Kelch fragment (Ala321-Glu611 of human KEAP1 protein) (human, UniProt Q14145 321-611, biotinylated (site not stated)); test: SPR; Biacore S200; biotinylated Kelch immobilised on a streptavidin chip; DLG peptides as analytes, 2-fold dilutions from 200 uM to 0.39 uM; 30 uL/min, 90 s association, 180 s dissociation; analysis at 15 °C; also run with PYR mixed into the analyte with the DLG peptides; conditions: both partners purified
T2 construct: Kelch-like ECH-associated protein 1 (KEAP1), human, Kelch fragment Ala321-Glu611; printed MW 34,038.03 Da; The printed mass (34,038.03 Da) looks larger than residues 321-611 alone, so extra residues or a tag for biotinylation may be present; also called Kelch domain; Kelch domain fragment of KEAP1; source: expressed in vitro, purified, biotinylated, validated by LC-MS
T2 sequence (Q14145 321-611): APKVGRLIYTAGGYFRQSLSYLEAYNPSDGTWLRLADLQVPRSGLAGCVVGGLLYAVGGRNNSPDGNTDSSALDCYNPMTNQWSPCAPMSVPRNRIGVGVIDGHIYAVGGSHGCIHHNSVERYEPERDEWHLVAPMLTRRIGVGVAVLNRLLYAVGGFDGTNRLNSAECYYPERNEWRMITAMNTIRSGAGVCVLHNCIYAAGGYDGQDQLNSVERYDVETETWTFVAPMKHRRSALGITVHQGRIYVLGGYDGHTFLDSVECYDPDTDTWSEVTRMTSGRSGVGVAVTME

T1 sequence (Q14145 2-624): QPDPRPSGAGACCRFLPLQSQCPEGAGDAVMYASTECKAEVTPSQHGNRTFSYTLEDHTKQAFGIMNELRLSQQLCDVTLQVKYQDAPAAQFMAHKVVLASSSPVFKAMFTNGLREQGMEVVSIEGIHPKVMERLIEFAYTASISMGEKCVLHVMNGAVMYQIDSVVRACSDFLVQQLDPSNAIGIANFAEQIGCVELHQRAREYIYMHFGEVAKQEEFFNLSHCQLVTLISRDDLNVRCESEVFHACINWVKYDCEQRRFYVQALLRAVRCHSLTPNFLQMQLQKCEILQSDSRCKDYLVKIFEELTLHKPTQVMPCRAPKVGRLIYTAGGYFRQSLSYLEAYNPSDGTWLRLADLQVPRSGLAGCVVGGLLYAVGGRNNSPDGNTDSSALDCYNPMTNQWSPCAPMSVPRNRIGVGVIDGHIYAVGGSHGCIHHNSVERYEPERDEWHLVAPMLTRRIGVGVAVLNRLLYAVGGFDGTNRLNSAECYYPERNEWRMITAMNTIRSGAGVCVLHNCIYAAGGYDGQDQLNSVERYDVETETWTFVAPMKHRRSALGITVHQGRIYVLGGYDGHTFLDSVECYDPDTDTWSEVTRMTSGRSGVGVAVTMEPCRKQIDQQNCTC

Kd [1]: 13 µM
Molecule: CCc1nc(N)nc(N)c1-c1ccc(Cl)cc1 [PYR, pyrimethamine]

binding result [2]: binds
B1: DLG^WT peptide (NRF2 residues 17-40) (peptide)
peptide: MDLIDILWRQDIDLGVSREVFDFS
notes: nuclear factor erythroid 2-related factor 2 (NRF2, NFE2L2), residues 17-40 with the DLG motif; also called DLG-containing NRF2 peptide; source: synthetic peptide
